Experimental data: PMC4214760, “Host Cofactors and Pharmacologic Ligands Share an Essential Interface in HIV-1 Capsid That Is Lost upon Disassembly” (PLoS Pathogens, 2014)
Entries after “also recorded” stand apart in the source; their conditions may differ. Read-outs that look alike come from different tables or passages of the source. Ends that are not written are not given here.

What was measured:
[1] = target: T1, HIV-1 CA hexamer (Human immunodeficiency virus type 1 group M subtype B, UniProt P12493, A146C/E177C/M317A/W316A); assay: biochemical; type: binding
T1 construct: produced by assembly of recombinant CA containing four amino acid substitutions; made in house
Method: (§1) Hexamer protein was dialysed against ITC buffer (50 mM TRIS pH 7.4, 150 mM NaCl) for experiments using intact hexamer, or ITC buffer containing 1 mM DTT for experiments with monomerized hexamer. The monomeric status of hexamer dialysed against buffer containing DTT was confirmed by size exclusion chromatography. Peptides were dissolved in the same buffer as hexamer; NUP153 peptides were first dissolved in DMSO to a concentration of 8 mM before diluting in buffer. Drugs were dissolved in DMSO to a concentration of 5 mM, before diluting in buffer. In all cases, hexamer (in the syringe) was titrated into the peptide or drug ligand (in the cell), with the exception of the competition experiments, whereby peptide (400 µM) was titrated into hexamer (30 µM) in the presence of drug (100 µM). Typical concentrations used were 600–800 µM hexamer titrated against 60–80 µM peptide unless indicated otherwise, and 200 µM hexamer titrated against 30 µM drug. ITC experiments were conducted on a MicroCal ITC-200, and data analyzed using Origin data analysis software (MicroCal).

[2] = test system: VSV-G pseudotyped GFP-encoding HIV-1 vector; type: cell-based
[3] = test system: HIV-1 reverse transcription; type: cell-based
[4] = target: T2, monomeric HIV-1 CA (Human immunodeficiency virus type 1 group M subtype B, UniProt P12493, A146C/E177C/M317A/W316A); assay: ITC binding to monomeric CA (hexamer monomerized with 1 mM DTT)
T2 construct: produced by assembly of recombinant CA containing four amino acid substitutions; made in house
Method: as §1

[5] = target: T1, HIV-1 CA hexamer; assay: ITC competition: cofactor peptide titrated into hexamer in the presence of drug; type: binding
Method: as §1

[6] = read-out: Kd (approximate), hexamer binding of CPSF6 and NUP153 mutant peptides, ITC, Hex 0.76-1.122 mM into peptide 0.076-0.112 mM, NB = no binding detectable

CN(C(=O)[C@H](Cc1ccccc1)NC(=O)Cc1ccsc1)c1ccccc1 [PF74_5]
Fold reduction in affinity to hexamer relative to PF74 ([1]; ITC): 54 fold

TNNSPSGVATFGANSST [Nup153pep F1415A]
Kd [1, 6]: > 700 µM

TNNSPSGVFAFGANSST [Nup153pep T1416A]
Kd [1, 6]: > 700 µM

PVLFPRQPFGQPPLG [CPSF6pep G318R]
Kd [1, 6]: > 700 µM

TNNSPAGVFTFGANSST [Nup153pep S1412A]
Kd [1]: ~130 µM

CN(C(=O)[C@H](Cc1ccccc1)NC(=O)Cc1ccoc1)c1ccccc1 [PF74_4]
Fold reduction in affinity to hexamer relative to PF74 ([1]; ITC): 94 fold

CN(C(=O)[C@H](Cc1ccccc1)NC(=O)Cc1cc[nH]c1)c1ccccc1 [PF74_3]
Kd [1]: 5.5 µM | Fold reduction in affinity to hexamer relative to PF74 ([1]; ITC): 46 fold

PF74
Reversal of inhibition of infection on wash out [2]: completely; also recorded: partially | Time post-infection by which almost all efficacy was lost when addition was delayed [2]: ≤ 10 h | Reversibility of block to reverse transcription on wash out [3]: largely irreversible | Fold higher affinity to hexamer than BI-2 [1]: 10 fold | Fold increase in affinity to hexamer compared with monomeric CA [1]: 22 fold | N (stoichiometry), binding to HIV-1 hexamer [1]: 0.7 | ΔH, binding to HIV-1 hexamer [1]: -9.02 kcal/mol | ΔS, binding to HIV-1 hexamer [1]: 1.20 (cal/mol)/deg | N (stoichiometry), binding to monomeric CA [4]: 0.7 | ΔH, binding to monomeric CA [4]: -16.1 kcal/mol | ΔS, binding to monomeric CA [4]: -29.0 (cal/mol)/deg | Competition with CPSF6 peptide for binding to hexamer [5]: inhibit CPSF6 binding to hexamer | Competition with NUP153 peptide for binding to hexamer [5]: prevent NUP153 binding to hexamer

PVLFDGQPFGQPPLG [CPSF6pep P317D]
Kd [1, 6]: > 700 µM

TNNSPSGVFTAGANSST [Nup153pep F1417A]
Kd [1, 6]: > 700 µM

PVLFPGQPAGQPPLG [CPSF6pep F321A]
Kd [1, 6]: > 700 µM

CN(C(=O)[C@H](Cc1ccccc1)NC(=O)CC1CCOC1)c1ccccc1 (stereo partly shown) [PF74_6]
Fold reduction in affinity to hexamer relative to PF74 ([1]; ITC): > 1000 fold
